# Assay results reported in patent US9283208B2, “Medicaments and methods for treating cancer” (NIIKI PHARMA INC., priority 2011, dated 2016).
# Marks after values point to notes of the source that are not given here.
# Experiments:
# certain types of cancer = conditions: See U.S. Pat. No. 7,338,946; cited from earlier work
# [1] = test system: patients with advanced solid tumors refractory to treatment; test: Phase I dose-escalation trial (UK): adverse reactions; type: in vivo, human; conditions: dose of 320 mg/m^2 and above
# Description: (§1) The second trial was conducted in two centers in the United Kingdom (UK) with the test drug being administered on days 1 through 4 of each 21-day cycle to patients with advanced solid tumors refractory to treatment. The patients had been heavily pre-treated and had failed an average of 3 previous lines of chemotherapy. Dose escalation progressed from 20 to 500 mg/m^2.
# (§2) Thereafter, in the US trial, in some patients, premedication of decadron (dexamethasone) was administered, with or without 5HT3 antagonists (serotonin antagonists) like ondansetron and granisetron. The decadron was given to prevent fever, at 4-10 mg IV. […] None of the patients premedicated with decadron had any incidence of infusion-related fever.
# [2] = Pharmacokinetics in patients: urinary excretion of ruthenium; type: in vivo, human; conditions: in the 24 hours following Cycle 1 Day 1 dosing
# Description: (§3) Pharmacokinetics: PK samples were obtained 0, 0.25, 0.5, 1, 2, 4, 6-8, 10-12, and 24 hours after the start of the infusion on Cycle 1 Day 1 as well as pre-infusion on Cycle 1 Day 8 and Cycle 2 Day 1. Plasma and urine were analyzed for total ruthenium [Ru] (free and bound). […] Peak plasma Ru levels were achieved by hour 2 (FIG. 2A). […] The estimated T½ is 91.4-112 hours.
# [3] = test system: patients with advanced solid tumors refractory to treatment; test: Infusional fever with or without steroid premedication (US trial); type: in vivo, human
# Description: as §2
# [4] = test system: advanced solid tumors refractory to treatment; test: Phase I dose-escalation trial (US): anti-tumor activity (partial response or stable disease); type: in vivo, human
# Excerpt: (§4) Two Phase I dose-escalation clinical studies involving sodium trans-[tetrachlorobis(1H-indazole)ruthenate (III)] (“test drug”) have been conducted. The primary objective of both studies is to determine the safety, tolerability and maximal tolerated dose (MTD) of the test drug. Secondary objectives are to estimate the PK parameters, to identify any preliminary evidence of anti-tumor activity of the test drug in patients with advanced cancers, and to explore pharmacodynamic (PD) endpoints which may be of use in the further development of the test drug.
# (§5) In the first trial which has been conducted in two centers in the US, the “test drug” was given intravenously once a week, i.e., on days 1, 8, and 15 of each 28-day cycle to patients with advanced solid tumors refractory to treatment. The patients had advanced solid tumors that had been heavily treated previously, had failed an average of 7 previous lines of chemotherapy, and had progressing disease at the time of entry into the trial. Standard 3+3 design with expanded cohort up to 25 patients at the maximal tolerated dose (MTD).
# 36 pts completed ≧one cycle of therapy and are evaluable to assess antitumor efficacy. […] All patients had PD at study entry.
# [5] = test system: patients with advanced solid tumors refractory to treatment; test: Phase I dose-escalation trial (US): safety, tolerability, DLT and MTD; type: in vivo, human
# Excerpt: as §4, §5
# Major Inclusion/Exclusion Criteria: • Patients≧18 years with histologically or cytologically confirmed advanced solid tumors refractory to standard therapies • ECOG PS 0 or 1 • Adequate hematologic, hepatic and renal function • No symptomatic CNS metastases, no primary brain tumors • No evidence of ischemia, recent MI, or significant abnormality on ECG • No Peripheral neuropathy ≧Grade 2 • Minimum life expectancy ≧12 weeks
# Definition of Dose Limiting Toxicity (DLT):
# Toxicity severity graded according to the CTCAE (ver. 3.0); occurring during Cycle 1 and related to test drug: • Grade 4 neutropenia for ≧7 days • Febrile neutropenia • Grade 4 thrombocytopenia or Grade • ≧Grade 2 neurotoxicity • ≧Grade 2 cardiotoxicity • Grade 2 hypersensitivity reaction or infusion reaction • Any other non-hematologic Grade 3 or 4 toxicity other than nausea/vomiting or alopecia • Inability to complete the first cycle due to any toxicity thought to be related to test drug.
# [6] = Pharmacokinetics in patients: plasma total ruthenium; type: in vivo, human; conditions: for C1D8 Hour 0 ng/mL Ru / C2D1 Hour 0 ng/mL Ru: pre-infusion trough
# Description: as §3
# [7] = test system: advanced solid tumors refractory to treatment; test: Phase I dose-escalation trial (UK): anti-tumor effect; type: in vivo, human
# Excerpt: as §4, §1
# [8] = 320 mg/m^2, total drug 630 mg, NET (carcinoid tumor of small intestine), 3 prior systemic therapies
# [9] = 320 mg/m^2, total drug 630 mg, NET (carcinoid tumor of small intestine), 3 prior systemic therapies, listed as Sodium trans-[tetrachlorobis(1H-indazole)ruthenate (III)]
# [10] = US trial, IV once a week on days 1, 8, 15 of 28-day cycle
structure (smiles),measurement,setting,value
"[Cl-].[Cl-].[Cl-].[Cl-].[Ru+3].c1ccc2[nH][nH+]cc2c1.c1ccc2[nH]ncc2c1.c1ccc2[nH]ncc2c1 [indazolium trans-[tetrachlorobis(1H-indazole)ruthenate (III)], reference compound]",inducing apoptosis in certain types of cancer,certain types of cancer,highly potent
"[Cl][Ru-]([Cl])([Cl])[Cl].[Na+].c1ccc2[nH]ncc2c1.c1ccc2[nH]ncc2c1 [test drug, sodium trans-[tetrachlorobis(1H-indazole)ruthenate (III)]]",adverse reactions,[1],fever and chill were seen
same,urinary excretion of the test drug derived ruthenium,[2],low urinary excretion
same,# with fever,"[3]; 320 mg/m^2, no steroid premedication, 3 patients",0
same,# with fever,"[3]; 320 mg/m^2, steroid premedication, 4 patients",0
same,# with fever,"[3]; 420 mg/m^2, no steroid premedication, 3 patients, one had fever but then none after premed of additional doses",2*
same,# with fever,"[3]; 420 mg/m^2, steroid premedication, 2 patients",0
same,# with fever,"[3]; 500 mg/m^2, no steroid premedication, 1 patient",1
same,# with fever,"[3]; 500 mg/m^2, steroid premedication, 2 patients",0
same,# with fever,"[3]; 625 mg/m^2, no steroid premedication, 8 patients",1
same,# with fever,"[3]; 625 mg/m^2, steroid premedication, 10 patients",0
same,# with fever,"[3]; 780 mg/m^2, no steroid premedication, 3 patients",1
same,# with fever,"[3]; 780 mg/m^2, steroid premedication, 6 patients",0
same,incidence of fever or chill on intravenous infusion,[3]; at therapeutically effective doses,higher incidence of fever or chill
same,infusional fever,"[3]; patients without premedication, US trial",high likelihood of infusional fever
same,Patients replaced in due to PD in Cycle 1,"[4]; 320 mg/m^2, 7 patients dosed",1
same,Duration of therapy,"[4]; 320 mg/m^2, total drug 531 mg, NSCLC, 7 prior systemic therapies",16 weeks
same,Duration of therapy,"[4]; 320 mg/m^2, total drug 618 mg, NSCLC, 4 prior systemic therapies",16 weeks
same,Duration of therapy,[4]; [8],100+ weeks
same,Response,[4]; [8],PR (partial response (PR))
same,Duration of therapy,[4]; [9],over 100 weeks
same,Response,[4]; [9],tumor regression and partial response
same,Patients replaced in due to PD in Cycle 1,"[4]; 420 mg/m^2, 5 patients dosed",2
same,Duration of therapy,"[4]; 420 mg/m^2, total drug 832 mg, NET, 0 prior systemic therapies (failed 4 prior chemo- and Yttrium-embolization procedures)",24 weeks
same,Duration of therapy,"[4]; 500 mg/m^2, total drug 890 mg, Unknown primary, 2 prior systemic therapies",22 weeks
same,Duration of therapy,"[4]; 625 mg/m^2, total drug 1175 mg, GE Junction, 3 prior systemic therapies",12+ weeks
same,Duration of therapy,"[4]; 625 mg/m^2, total drug 1190 mg, CRC, 3 prior systemic therapies",12 weeks
same,Patients replaced in due to PD in Cycle 1,"[4]; 780 mg/m^2, 9 patients dosed",1
same,Duration of therapy,"[4]; 780 mg/m^2, total drug 1450 mg, Sarcoma, 3 prior systemic therapies",16 weeks
same,Duration of therapy,"[4]; 780 mg/m^2, total drug 1544 mg, NET, 1 prior systemic therapy",27+ weeks
same,minimum effective dosage for general use of treating cancer,[4]; human dose escalating clinical trial,320 mg/m^2
same,Patients w/ DLT,"[5]; 320 mg/m^2, 7 patients dosed",1
same,major adverse event related to the test drug,"[5]; 320 mg/m^2 on days 1, 8, 15 of 28-day cycle, carcinoid tumor patient treated over 100 weeks",No major adverse event
same,Patients w/ DLT,"[5]; 625 mg/m^2, 6 patients dosed",1
same,Patients w/ DLT,"[5]; 780 mg/m^2, 9 patients dosed",3
same,DLT Seen at 780 mg/m^2,"[5]; 780 mg/m^2, patient, not premedicated with steroids",A person had an infusion reaction consisting of fever
same,time for Grade 2 creatinine elevation to return to baseline,"[5]; 780 mg/m^2, person one",within 1 week.
same,DLT Seen at 780 mg/m^2,"[5]; 780 mg/m^2, person one, following Cycle 1 Day 1 dosing, fatigue",Grade 1 fatigue following Cycle 1 Day 1 dosing associated
same,DLT Seen at 780 mg/m^2,"[5]; 780 mg/m^2, person one, following Cycle 1 Day 1 dosing, nausea","person one had Grade 2 nausea, Grade 1 vomiting,"
same,time for Grade 2 creatinine elevation to return to baseline,"[5]; 780 mg/m^2, person two",≤ 3 weeks.
same,DLT dose,[5]; [10],780 mg/m^2
same,maximal tolerated dose (MTD),[5]; [10],625 mg/m^2
same,C1D1 Hour 24 ng/mL Ru,"[6]; 20 mg/m^2, plasma total Ru",1366 ng/mL Ru
same,C1D8 Hour 0 ng/mL Ru,"[6]; 20 mg/m^2, plasma total Ru",528 ng/mL Ru
same,C2D1 Hour 0 ng/mL Ru,"[6]; 20 mg/m^2, plasma total Ru",670 ng/mL Ru
same,C1D1 Hour 24 ng/mL Ru,"[6]; 40 mg/m^2, plasma total Ru",2884 ng/mL Ru
same,C1D8 Hour 0 ng/mL Ru,"[6]; 40 mg/m^2, plasma total Ru",1197 ng/mL Ru
same,C2D1 Hour 0 ng/mL Ru,"[6]; 40 mg/m^2, plasma total Ru",1472 ng/mL Ru
same,C1D1 Hour 24 ng/mL Ru,"[6]; 80 mg/m^2, plasma total Ru",4831 ng/mL Ru
same,C1D1 Hour 24 ng/mL Ru,"[6]; 160 mg/m^2, plasma total Ru",4639 ng/mL Ru
same,C1D8 Hour 0 ng/mL Ru,"[6]; 160 mg/m^2, plasma total Ru",4000 ng/mL Ru
same,C2D1 Hour 0 ng/mL Ru,"[6]; 160 mg/m^2, plasma total Ru",6588 ng/mL Ru
same,C1D1 Hour 24 ng/mL Ru,"[6]; 320 mg/m^2, plasma total Ru",20033 ng/mL Ru
same,C1D8 Hour 0 ng/mL Ru,"[6]; 320 mg/m^2, plasma total Ru",7667 ng/mL Ru
same,C2D1 Hour 0 ng/mL Ru,"[6]; 320 mg/m^2, plasma total Ru",10126 ng/mL Ru
same,C1D1 Hour 24 ng/mL Ru,"[6]; 420 mg/m^2, plasma total Ru",25921 ng/mL Ru
same,C1D8 Hour 0 ng/mL Ru,"[6]; 420 mg/m^2, plasma total Ru",9595 ng/mL Ru
same,C2D1 Hour 0 ng/mL Ru,"[6]; 420 mg/m^2, plasma total Ru",14698 ng/mL Ru
same,C1D1 Hour 24 ng/mL Ru,"[6]; 500 mg/m^2, plasma total Ru",28070 ng/mL Ru
same,C1D8 Hour 0 ng/mL Ru,"[6]; 500 mg/m^2, plasma total Ru",11880 ng/mL Ru
same,C2D1 Hour 0 ng/mL Ru,"[6]; 500 mg/m^2, plasma total Ru",13000 ng/mL Ru
same,C1D1 Hour 24 ng/mL Ru,"[6]; 625 mg/m^2, plasma total Ru",35216 ng/mL Ru
same,C1D8 Hour 0 ng/mL Ru,"[6]; 625 mg/m^2, plasma total Ru",12303 ng/mL Ru
same,C2D1 Hour 0 ng/mL Ru,"[6]; 625 mg/m^2, plasma total Ru",14363 ng/mL Ru
same,C1D1 Hour 24 ng/mL Ru,"[6]; 780 mg/m^2, plasma total Ru",43105 ng/mL Ru
same,C1D8 Hour 0 ng/mL Ru,"[6]; 780 mg/m^2, plasma total Ru",17001 ng/mL Ru
same,C2D1 Hour 0 ng/mL Ru,"[6]; 780 mg/m^2, plasma total Ru",22125 ng/mL Ru
same,dose proportionality of Cmax and AUC0-168,[6]; 20 to 780 mg/m^2,good dose proportionality
same,time by which peak plasma Ru levels were achieved,"[6]; after start of infusion, Cycle 1 Day 1",≤ 2 h
same,accumulation of Ru following dosing,[6]; noted by Cycle 1 Day 8 and Cycle 2 Day 1 levels,There is accumulation of Ru following dosing
same,estimated T½,"[6]; plasma total Ru, patients",91.4 to 112 h
same,# weeks of treatment,"[7]; Patient 1, 20 mg/m^2, Esophageal",2 weeks
same,# weeks of treatment,"[7]; Patient 2, 40 mg/m^2, Head & Neck",4 weeks
same,Anti-tumor effect (best response),"[7]; Patient 2, 40 mg/m^2 days 1 through 4 of 21-day cycle, Head & Neck",Stable disease
same,# weeks of treatment,"[7]; Patient 3, 80 mg/m^2, Mesothelioma",2 weeks
same,# weeks of treatment,"[7]; Patient 4, 160 mg/m^2, Cecum",2 weeks
same,# weeks of treatment,"[7]; Patient 5, 320 mg/m^2, Anal",1 weeks
same,# weeks of treatment,"[7]; Patient 6, 500 mg/m^2, Rectal",4 weeks
same,Anti-tumor effect (best response),"[7]; Patient 6, 500 mg/m^2 days 1 through 4 of 21-day cycle, Rectal",Stable disease
same,# weeks of treatment,"[7]; Patient 7, 500 mg/m^2, Esophageal",2 weeks
same,inducing apoptosis in certain types of cancer,certain types of cancer,highly potent
